Structures can show the parent of a compound that is named as a salt.
How the values were obtained:
5-lipoxygenase [1] = biological target: T1, 5-lipoxygenase (Cavia porcellus, UniProt A0A286X958); test: assay system evaluating only the inhibitory activity on 5-lipoxygenase (105,000 x g supernate of sonicated polymorphonuclear leukocytes); type: biochemical; settings: supernate of sonicated guinea pig polymorphonuclear leukocytes, 30°C, 5 minutes, 1 mM calcium chloride; production of 5-HETE, 5,12-diHETE and leukotriene B; read-out: concentrations required to produce 50% inhibitions on 5-lipoxygenase
T1 construct: The supernate was used as an enzyme throughout this work; from tissue; host or cells: 105,000 x g supernatant of sonicated, casein-elicited guinea pig polymorphonuclear leukocytes
T1 sequence (A0A286X958 1-674): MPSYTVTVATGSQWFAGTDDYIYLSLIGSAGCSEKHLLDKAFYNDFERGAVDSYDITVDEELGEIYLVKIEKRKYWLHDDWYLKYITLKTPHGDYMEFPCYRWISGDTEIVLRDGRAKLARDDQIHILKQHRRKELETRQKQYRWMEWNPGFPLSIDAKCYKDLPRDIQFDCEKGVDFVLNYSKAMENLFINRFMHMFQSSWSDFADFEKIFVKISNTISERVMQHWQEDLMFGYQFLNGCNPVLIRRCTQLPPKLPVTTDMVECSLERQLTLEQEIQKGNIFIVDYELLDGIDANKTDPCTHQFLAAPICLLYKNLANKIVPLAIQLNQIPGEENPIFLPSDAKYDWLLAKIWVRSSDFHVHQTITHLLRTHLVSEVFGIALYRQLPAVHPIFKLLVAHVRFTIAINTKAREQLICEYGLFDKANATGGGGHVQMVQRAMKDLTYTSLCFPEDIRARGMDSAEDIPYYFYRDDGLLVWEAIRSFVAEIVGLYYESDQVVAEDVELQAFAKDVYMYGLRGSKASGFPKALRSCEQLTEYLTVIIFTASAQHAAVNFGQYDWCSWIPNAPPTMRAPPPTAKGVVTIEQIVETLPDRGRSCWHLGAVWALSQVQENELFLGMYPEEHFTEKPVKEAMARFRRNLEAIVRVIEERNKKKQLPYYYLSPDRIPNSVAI
Protocol: The experiments for evaluating only the inhibitory activity on 5-lipoxygenase were carried out as follows: Guinea pig was treated by casein and harvested polymorphonuclear leukocytes from cavity were sonicated, followed by the centrifugation at 105,000 x g. The supernate was used as an enzyme throughout this work. The supernate (100 - 500 ug of protein) was incubated for 5 minutes at 30°C with [^14C] arachidonic acid and 1 mM calcium chloride in the presence or in the absence of test compound. The reaction was terminated by the addition of ether. Ether extract was separated by thin layer chromatography using silica gel plates to observe production of 5-HETE, 5,12-diHETE and leukotriene B. In this assay system, the concentrations for 50% inhibitions on 5- lipoxygenase were evaluated by using the concentrations of compounds of the present invention required 50% inhibitions on the production of 5-HETE, 5,12-diHETE and leukotrien B.

mice = test: acute toxicity by intravenous administration; type: in vivo, mouse; settings: intravenously administered to tail vein in ten mice at the dose of 30 mg/kg
Protocol: On the other hand, all extent of the compounds of the present invention were confirmed that their acute toxicities were more than 30 mg/kg by intravenous administration. Therefore, 2-aminophenol derivatives of the present invention may be considered to be sufficiently safe and suitable for medical use.

5-lipoxygenase [2] = biological target: T1, 5-lipoxygenase; test: standard assay system using polymorphonuclear leukocytes (production of 5-HETE from [14C] arachidonic acid); type: cell-based; settings: intact polymorphonuclear leukocytes from guinea pig, 4 x 10^7 cells, 37°C, 5 minutes, read-out: concentrations for 50% inhibitions on 5-lipoxygenase
Protocol: (§1) For example, in standard assay system using polymorphonuclear leukocytes from guinea pig (details of experiments were described hereafter), (a) the concentrations of 2-amino-4-(4-methylphenylthio)phenol hydrochloride for 50% inhibitions on 5-lipoxygenase and on cyclooxygenase were 0.2 µM and 0.3 µM, respectively, (b) the concentrations of 2-amino-4-phenylthiophenol hydrochloride for 50% inhibitions on 5- lipoxygenase and on cyclooxygenase were 0.1 µM and 0.3 uM, respectively and (c) the concentrations of 2-amino-4-(4-chlorophenylthio)phenol hydrochloride for 50% inhibitions on 5-lipoxygenase and on cyclooxygenase were 0.5 µM and 0.3 µM, respectively. Therefore, it is comfirmed that these compounds (a), (b) and (c) inhibit both 5-lipoxygenase and cyclooxygenase at the same time at very low concentrations.
(§2) The experiments for screening using polymorphonuclear leukocytes were carried out as follows: The reaction mixture (0.1 ml) containing 5 µmole of potassium phosphate at pH 7.4, 0.1 µmole of calcium chloride, polymorphonuclear leukocytes prepared from guinea pigs (4 x 10^7 cells) and test compound, was preincubated for 5 minutes at 37°C. The reaction was started by the addition of [^14C] arachidonic acid ([…] dpm, 1.8 nmole), followed by the incubation at 37°C for 5 minutes. The reaction was terminated by the addition of 0.3 ml of a mixture of ether/ methanol/lM citric acid (30/4/1). The organic phase (20 µl) was applied to silica gel plate. Thin layer chromatography was performed to separate each product with solvent system of ether/petroleum ether/acetic acid (85/15/0.1).
(§3) Activity of 5-lipoxygenase and cyclooxygenase were calculated from the measurements of the production of 5-HETE, and 12L-hydroxy-5,8,10-[…] acid (i.e. HHT) or thromboxane B2 (i.e. TXB2), respectively [it has been known that HHT and TXB2 are the last products of the system concerning cyclooxygenase in the arachidonate cascade]. […]

cyclooxygenase = test: standard assay system using polymorphonuclear leukocytes (production of HHT or TXB2 from [14C] arachidonic acid); type: cell-based; settings: intact polymorphonuclear leukocytes from guinea pig, 4 x 10^7 cells, 37°C, 5 minutes, read-out: concentrations for 50% inhibitions on cyclooxygenase
Protocol: as §1, §2, §3

Row | IC50 (5-lipoxygenase [1]) | Compound | mortality (mice) | IC50 (5-lipoxygenase [2]) | IC50 (cyclooxygenase)
1 | 480 nM | Cc1cc(C)c(Sc2ccc(O)c(N)c2)c(C)c1 [2-Amino-4-(2,4,6-trimethylphenylthio)phenol hydrochloride] | – | – | –
2 | 1500 nM | Nc1cc(Sc2ccc(O)c(N)c2)ccc1O [2-Amino-4-(3-amino-4-hydroxyphenylthio)phenol] | – | – | –
3 | 300 nM | Nc1cc(Sc2ccc(Cl)cc2)ccc1O [2-Amino-4-(4-chlorophenylthio)phenol hydrochloride] | – | 500 nM | 300 nM
4 | 320 nM | CC(C)(C)c1ccc(Sc2ccc(O)c(N)c2)cc1 [2-Amino-4-(4-tert-butylphenylthio)phenol hydrochloride] | – | – | –
5 | 460 nM | Nc1cc(Sc2ccc(O)cc2)ccc1O [2-amino-4-(4-hydroxyphenylthio)phenol, 2-Amino-4-(4-hydroxyphenylthio)phenol] | – | – | –
6 | 11000 nM | Nc1cc([S+]([O-])c2ccccc2)ccc1O (stereo not drawn) [2-amino-4-benzenesulfinylphenol, 2-Amino-4-benzenesulfinylphenol] | – | – | –
7 | 18000 nM | Nc1cc(NC(=O)c2ccccc2)ccc1O [N-(3-Amino-4-hydroxyphenyl)benzamide hydrochloride] | – | – | –

Row | Compound | IC50 (5-lipoxygenase [1]) | mortality (mice) | IC50 (5-lipoxygenase [2]) | IC50 (cyclooxygenase)
8 | Cl.Nc1cc(-c2nc3ccccc3s2)ccc1O [2-Amino-4-(2-benzothiazolyl)phenol hydrochloride] | 230 nM | no mouse was dead | – | –
9 | Cc1ccc(Sc2ccc(O)c(N)c2)cc1.Cl [2-Amino-4-(4-methylphenylthio)phenol hydrochloride] | 200 nM | no mouse was dead | 200 nM | 300 nM
10 | Nc1cc(C#Cc2ccccc2)ccc1O [2-amino-4-phenylethynylphenol, 2-Amino-4-phenylethynylphenol] | 690 nM | no mouse was dead | – | –
11 | Nc1cc(Sc2ccccc2)ccc1O [2-amino-4-phenylthiophenol hydrochloride, 2-Amino-4-phenylthiophenol hydrochloride] | 310 nM | no mouse was dead | 100 nM | 300 nM

Source: patent publication EP0083204A2, “2-Aminophenol derivatives and process for their preparation” (ONO PHARMACEUTICAL CO., LTD., priority 1981, dated 1983)
